This note sets out measurements from patent publication US12485121B2, “Antiviral agents for the treatment and prevention of HIV infection” (Pharmasyntez, Joint Stock Company, priority 2020, dated 2025).

The test system of the experiment is HIV-1 subtype A strain 12RU 69831. As to the kind of experiment: Inhibition of HIV-1 reproduction / protection of infected MT-4 cells (living cell concentration, p24 production). The experiment is classed as cell-based. The following applies: Human immunodeficiency virus 1, MT4, MT-4 cells infected with HIV-1 at a constant virus dose of 300 CCID50; read-out: Activity against HIV-1 12RU 69831 strain (subtype A). The method, then:
Evaluation of HIV reproduction inhibition/protection of human cells by anti-HIV products of the present invention was conducted by measuring change in living cells concentration in experimental wells with MT-4 cells infected with HIV-1, as well as by the production of viral protein p24 with adding different concentrations of compounds according to the present invention. Antiviral activity of products against HIV-1 subtype A strain 12RU 69831 was determined, when the cell culture was infected with a constant dose of virus, corresponding to 300 CCID50.
On to `Cc1cc(C#N)cc(C)c1Oc1nc(Nc2ccc(C#N)cc2)nc2c1CCN(C(=O)c1ccncc1)CC2` [BB0274011, 4-((2-((4-Cyanophenyl)amino)-7-isonicotinoyl-6,7,8,9-tetrahydro-5H-pyrimido[4,5-d]azepine-4-yl)oxy)-3,5-dimethylbenzonitrile], for which the IC50 came to 27.1 µM.

With `CCOC(=O)N1CCc2nc(Nc3ccc(C#N)cc3)nc(Oc3c(C)cc(C#N)cc3C)c2C1` [BB0273965, Ethyl 4-(4-cyano-2,6-dimethylphenoxy)-2-((4-cyanophenyl)amino)-7,8-dihydropyrido[4,3-d]pyrimidine-6(5H)-carboxylate], the IC50 was 1.73 µM.

`Cc1cc(C#N)cc(C)c1Oc1nc(Nc2ccc(C#N)cc2)nc2c1CN(C(=O)C1CNC1)CC2` [BB0274099, 4-((6-(Azetidine-3-carbonyl)-2-((4-cyanophenyl)amino)-5,6,7,8-tetrahydropyrido[4,3-d]pyrimidine-4-yl)oxy)-3,5-dimethylbenzonitrile]: the IC50 is 0.152 µM.

Take `Cc1cc(C#N)cc(C)c1Oc1nc(Nc2ccc(C#N)cc2)nc2c1CN(C(=O)[C@@H](N)Cc1ccccc1)CC2` [BB0274111, (S)-4-((6-(2-Amino-3-phenylpropanoyl)-2-((4-cyanophenyl)amino)-5,6,7,8-tetrahydropyrido[4,3-d]pyrimidine-4-yl)oxy)-3,5-dimethylbenzonitrile]: the IC50 turned out to be 533 µM.

Take `Cc1cc(C#N)cc(C)c1Oc1nc(Nc2ccc(C#N)cc2)nc2c1CCN(C(=O)Cn1ccnc1C)CC2` [BB0274236, 4-((2-((4-Cyanophenyl)amino)-7-(2-(methyl-1H-imidazole-1-yl)acetyl)-6,7,8,9-tetrahydro-5H-pyrimido[4,5-d]azepine-4-yl)oxy)-3,5-dimethylbenzonitrile]: the IC50 was found to be 0.0488 µM.

`Cc1cc(C#N)cc(C)c1Oc1nc(Nc2ccc(C#N)cc2)nc2c1CCN(Cc1ccncc1)CC2` [BB0274016, 4-((2-((4-Cyanophenyl)amino)-7-(pyridine-4-ylmethyl)-6,7,8,9-tetrahydro-5H-pyrimido[4,5-d]azepine-4-yl)oxy)-3,5-dimethylbenzonitrile]: the IC50 was determined as 4880 µM.

Take `Cc1cc(C#N)cc(C)c1Oc1nc(Nc2ccc(C#N)cc2)nc2c1CCN(Cc1ccc(O)cc1)CC2` [BB0274075, 4-((2-((4-Cyanophenyl)amino)-7-(4-hydroxybenzyl)-6,7,8,9-tetrahydro-5H-pyrimido[4,5-d]azepine-4-yl)oxy)-3,5-dimethylbenzonitrile]: the IC50 worked out at 5.8 µM.

`Cc1cc(C#N)cc(C)c1Oc1nc(Nc2ccc(C#N)cc2)nc2c1CCNCC2` [BB0274021, 4-((2-((4-Cyanophenyl)amino)-6,7,8,9-tetrahydro-5H-pyrimido[4,5-d]azepine-4-yl)oxy)-3,5-dimethylbenzonitrile]: the IC50 was 0.0102 µM.

Regarding `Cc1cc(C#N)cc(C)c1Oc1nc(Nc2ccc(C#N)cc2)nc2c1CCN(C(=O)C1CCN(C(=O)OC(C)(C)C)CC1)CC2` [BB0274025, Tert-butyl 4-(4-(4-cyano-2,6-dimethylphenoxy)-2-((4-cyanophenyl)amino)-6,7,8,9-tetrahydro-5H-pyrimido[4,5-d]asein-7-carbonyl)piperidine-1-carboxylate], the IC50 was determined as 3220 µM.

Regarding `C#CCOc1ccccc1CN1CCc2nc(Nc3ccc(C#N)cc3)nc(Oc3c(C)cc(C#N)cc3C)c2C1` [BB0274141, 4-((2-((4-Cyanophenyl)amino)-6-(2-(prop-2-in-1-yloxy)benzyl)-5,6,7,8-tetrahydropyrido[4,3-d]pyrimidine-4-yl)oxy)-3,5-dimethylbenzonitrile], the IC50 was determined as 174 µM.

With `Cc1cc(C#N)cc(C)c1Oc1nc(Nc2ccc(C#N)cc2)nc2c1CN(C(=O)[C@H](N)CO)CC2` [BB0274123, (R)-4-((6-(2-Amino-3-hydroxypropanoyl)-2-((4-cyanophenyl)amino)-5,6,7,8-tetrahydropyrido[4,3-d]pyrimidine-4-yl)oxy)-3,5-dimethylbenzonitrile], the IC50 turned out to be 2.07 µM.
